From ChEMBL document CHEMBL3779884, “Anti-Staphylococcal Biofilm Effects of Human Cathelicidin Peptides” (ACS Med Chem Lett, 2016)
≈ marks a conversion by molar mass, not a printed value. Calls of active or inactive are those of the source. No cut-off for these calls is given here. Where a SMILES comes first, the peptide text is derived from it. [ ]: non-standard residue; d: D form. Bip = N[C@@H](Cc1ccc(-c2ccccc2)cc1)C(=O)O

Columns and labels:
Staphylococcus aureus [1] = experiment: Antibacterial activity against Staphylococcus aureus Newman incubated for 20 hrs by microplate reader analysis; assay type: functional
Staphylococcus aureus [2] = experiment: Antibiofilm activity against Staphylococcus aureus Mu50 assessed as 24 hr preformed biofilm disruption at 3.1 to 25 uM incubated for 24 hrs by XTT assay; assay type: functional, organism-based
Staphylococcus aureus [3] = experiment: Antibiofilm activity against Staphylococcus aureus clinical isolate USA300 assessed as 24 hr preformed biofilm disruption at 3.1 to 25 uM incubated for 24 hrs by XTT assay; assay type: functional, organism-based
Staphylococcus aureus [4] = experiment: Antibiofilm activity against Staphylococcus aureus clinical isolate USA300 assessed as inhibition of bacterial attachment at 25 uM incubated for 1 hr by XTT/PMS assay; assay type: functional, organism-based
[5] = Hemolytic activity against human RBC after 1 hr by microplate reader analysis; assay type: ADME, cell-based, Erythrocyte; settings: red blood cells
Staphylococcus aureus [6] = experiment: Antibiofilm activity against Staphylococcus aureus clinical isolate USA400 assessed as 24 hr preformed biofilm disruption at 3.1 to 25 uM incubated for 24 hrs by XTT assay; assay type: functional, organism-based
Staphylococcus aureus [7] = experiment: Antibacterial activity against Staphylococcus aureus Mu50 incubated for 20 hrs by microplate reader analysis; assay type: functional; settings: Mu50, 20 h
Staphylococcus aureus [8] = experiment: Antibacterial activity against Staphylococcus aureus clinical isolate USA300 incubated for 20 hrs by microplate reader analysis; assay type: functional; settings: isolate USA300, 20 h
Staphylococcus aureus [9] = experiment: Antibacterial activity against Staphylococcus aureus clinical isolate UAMS-1 incubated for 20 hrs by microplate reader analysis; assay type: functional; settings: isolate UAMS-1, 20 h
Staphylococcus aureus [10] = experiment: Antibacterial activity against Staphylococcus aureus clinical isolate USA400 incubated for 20 hrs by microplate reader analysis; assay type: functional; settings: isolate USA400, 20 h
HaCaT = experiment: Cytotoxic activity against human HaCaT cells assessed as reduction in cell viability at 20 to 100 uM incubated for 1 hr by MTS assay; assay type: cell-based
Staphylococcus aureus [11] = experiment: Antibiofilm activity against Staphylococcus aureus clinical isolate USA300 assessed as disruption of 72 hr-preformed biofilm at 6.2 uM incubated for 24 hrs by XTT assay in presence of 1.6 uM vancomycin; assay type: functional, organism-based
Staphylococcus aureus [12] = experiment: Antibiofilm activity against Staphylococcus aureus clinical isolate UAMS-1 assessed as 24 hr preformed biofilm disruption at 3.1 to 25 uM incubated for 24 hrs by XTT assay; assay type: functional, organism-based
Staphylococcus aureus [13] = experiment: Antibacterial activity against Staphylococcus aureus clinical isolate USA200 incubated for 20 hrs by microplate reader analysis; assay type: functional; settings: isolate USA200, 20 h
Staphylococcus aureus [14] = experiment: Antibiofilm activity against Staphylococcus aureus clinical isolate USA200 assessed as 24 hr preformed biofilm disruption at 3.1 to 25 uM incubated for 24 hrs by XTT assay; assay type: functional, organism-based
Staphylococcus aureus [15] = experiment: Antibiofilm activity against Staphylococcus aureus Newman assessed as 24 hr preformed biofilm disruption at 3.1 to 25 uM incubated for 24 hrs by XTT assay; assay type: functional, organism-based
Staphylococcus aureus [16] = experiment: Antibiofilm activity against Staphylococcus aureus clinical isolate USA300 assessed as disruption of 72 hr-preformed biofilm at 6.2 uM incubated for 24 hrs by XTT assay in presence of 1.6 uM daptomycin; assay type: functional, organism-based
Staphylococcus aureus [17] = experiment: Inhibition of biofilm formation in Staphylococcus aureus clinical isolate USA300 at 3.1 to 25 uM incubated for 24 hrs by XTT/PMS assay; assay type: functional, organism-based
Staphylococcus aureus [18] = experiment: Antibiofilm activity against Staphylococcus aureus clinical isolate USA300 assessed as dead cells at 3.1 to 25 uM incubated for 24 hrs by SYTO 9/propidium iodide staining based confocal laser scanning microscopy; assay type: functional, organism-based
Staphylococcus aureus [19] = experiment: Antibiofilm activity against Staphylococcus aureus clinical isolate UAMS-1 assessed as 24 hr preformed biofilm disruption at 12.5 to 25 uM incubated for 24 hrs by XTT assay; assay type: functional, organism-based
Staphylococcus aureus [20] = experiment: Antibiofilm activity against Staphylococcus aureus JE2 assessed as inhibition of bacterial attachment at 3.1 to 25 uM incubated for 24 hrs by XTT/PMS assay; assay type: functional, organism-based
Staphylococcus aureus [21] = experiment: Antibiofilm activity against Staphylococcus aureus harboring fnbA mutant assessed as inhibition of bacterial attachment at 3.1 to 25 uM incubated for 24 hrs by XTT/PMS assay; assay type: functional, organism-based
Staphylococcus aureus [22] = experiment: Antibiofilm activity against Staphylococcus aureus clinical isolate USA200 assessed as 24 hr preformed biofilm disruption at 12.5 to 25 uM incubated for 24 hrs by XTT assay; assay type: functional, organism-based
Staphylococcus aureus [23] = experiment: Antibiofilm activity against Staphylococcus aureus clinical isolate USA300 assessed as 24 hr preformed biofilm disruption at 12.5 to 25 uM incubated for 24 hrs by XTT assay; assay type: functional, organism-based
Staphylococcus aureus [24] = experiment: Antibiofilm activity against Staphylococcus aureus harboring sasC mutant assessed as inhibition of bacterial attachment at 3.1 to 25 uM incubated for 24 hrs by XTT/PMS assay; assay type: functional, organism-based
Staphylococcus aureus [25] = experiment: Antibiofilm activity against Staphylococcus aureus clinical isolate USA400 assessed as 24 hr preformed biofilm disruption at 12.5 to 25 uM incubated for 24 hrs by XTT assay; assay type: functional, organism-based
Staphylococcus aureus [26] = experiment: Antibiofilm activity against Staphylococcus aureus harboring sasC mutant assessed as 24 hr preformed biofilm disruption at 3.1 to 25 uM incubated for 24 hrs by XTT assay; assay type: functional, organism-based
Staphylococcus aureus [27] = experiment: Antibiofilm activity against Staphylococcus aureus harboring fnbA mutant assessed as 24 hr preformed biofilm disruption at 3.1 to 25 uM incubated for 24 hrs by XTT assay; assay type: functional, organism-based
Staphylococcus aureus [28] = experiment: Antibiofilm activity against Staphylococcus aureus harboring […] mutant assessed as inhibition of bacterial attachment at 3.1 to 25 uM incubated for 24 hrs by XTT/PMS assay; assay type: functional, organism-based
Staphylococcus aureus [29] = experiment: Antibiofilm activity against Staphylococcus aureus JE2 assessed as 24 hr preformed biofilm disruption at 3.1 to 25 uM incubated for 24 hrs by XTT assay; assay type: functional, organism-based
Staphylococcus aureus [30] = experiment: Antibiofilm activity against Staphylococcus aureus Newman assessed as 24 hr preformed biofilm disruption at 12.5 to 25 uM incubated for 24 hrs by XTT assay; assay type: functional, organism-based
Staphylococcus aureus [31] = experiment: Antibiofilm activity against Staphylococcus aureus Mu50 assessed as 24 hr preformed biofilm disruption at 12.5 to 25 uM incubated for 24 hrs by XTT assay; assay type: functional, organism-based
Staphylococcus aureus [32] = experiment: Antibiofilm activity against Staphylococcus aureus harboring […] mutant assessed as 24 hr preformed biofilm disruption at 3.1 to 25 uM incubated for 24 hrs by XTT assay; assay type: functional, organism-based

| SMILES | MIC (Staphylococcus aureus [1]) [µM] | inhibition (Staphylococcus aureus [4]) | HC50 at 1 h [5] [µM] | MIC (Staphylococcus aureus [7]) [µM] | MIC (Staphylococcus aureus [8]) [µM] | MIC (Staphylococcus aureus [9]) [µM] | MIC (Staphylococcus aureus [10]) [µM] | Activity (HaCaT) | Activity (Staphylococcus aureus [11]) | MIC (Staphylococcus aureus [13]) [µM] | Activity (Staphylococcus aureus [16]) | inhibition (Staphylococcus aureus [17]) | Activity (Staphylococcus aureus [18]) | also measured |
| --- | --- | --- | --- | --- | --- | --- | --- | --- | --- | --- | --- | --- | --- | --- |
| CC[C@H](C)[C@H](NC(=O)[C@H](CCCNC(=N)N)NC(=O)[C@H](CCC(N)=O)NC(=O)[C@@H](NC(=O)[C@@H](NC(=O)[C@H](CCCNC(=N)N)NC(=O)[C@H](CCCCN)NC(=O)[C@H](Cc1ccccc1)NC(=O)CN)[C@@H](C)CC)C(C)C)C(=O)N[C@@H](CCCCN)C(=O)N[C@@H](CC(=O)O)C(=O)N[C@@H](Cc1ccccc1)C(=O)N[C@@H](CC(C)C)C(=O)N[C@@H](CCCNC(=N)N)C(=O)N[C@@H](CC(N)=O)C(=O)N[C@@H](CC(C)C)C(=O)N[C@H](C(=O)O)C(C)C (H-GFKRIVQRIKDFLRNLV-OH) | 1.56 (≈ 3.28 µg/mL) | Active | 120 | 1.56 (≈ 3.28 µg/mL) | 1.56 (≈ 3.28 µg/mL) | 3.1 (≈ 6.52 µg/mL) | 1.56 (≈ 3.28 µg/mL) | Non-toxic | Active | 1.56 (≈ 3.28 µg/mL) | Active | Active | Active | Activity (Staphylococcus aureus [2]): Active; Activity (Staphylococcus aureus [3]): Active; Activity (Staphylococcus aureus [6]): Active; Activity (Staphylococcus aureus [12]): inactive; Activity (Staphylococcus aureus [14]): Active; Activity (Staphylococcus aureus [15]): Active |
| CC(C)C[C@H](NC(=O)[C@H](Cc1ccc(-c2ccccc2)cc1)NC(=O)[C@H](CC(=O)O)NC(=O)[C@H](CCCCN)NC(=O)[C@H](CC(C)C)NC(=O)[C@H](CCCNC(=N)N)NC(=O)[C@H](CCC(N)=O)NC(=O)[C@@H](NC(=O)[C@H](CC(C)C)NC(=O)[C@H](CCCNC(=N)N)NC(=O)[C@H](CCCCN)NC(=O)[C@H](Cc1ccc(-c2ccccc2)cc1)NC(=O)CN)C(C)C)C(=O)N[C@@H](CCCNC(=N)N)C(=O)N[C@@H](CC(N)=O)C(=O)N[C@@H](CC(C)C)C(=O)N[C@H](C(N)=O)C(C)C (H-G[Bip]KRLVQRLKD[Bip]LRNLV-NH2) | 3.1 (≈ 6.99 µg/mL) | Active | 120 | 3.1 (≈ 6.99 µg/mL) | 3.1 (≈ 6.99 µg/mL) | 3.1 (≈ 6.99 µg/mL) | 3.1 (≈ 6.99 µg/mL) | Non-toxic | Active | 3.1 (≈ 6.99 µg/mL) | Active | Active | Active | Activity (Staphylococcus aureus [19]): Active; inhibition (Staphylococcus aureus [20]): Active; inhibition (Staphylococcus aureus [21]): Active; Activity (Staphylococcus aureus [22]): Active; Activity (Staphylococcus aureus [23]): Active; inhibition (Staphylococcus aureus [24]): Active; Activity (Staphylococcus aureus [25]): Active; Activity (Staphylococcus aureus [26]): Active; Activity (Staphylococcus aureus [27]): Active; inhibition (Staphylococcus aureus [28]): Active; Activity (Staphylococcus aureus [29]): Active; Activity (Staphylococcus aureus [30]): Active; Activity (Staphylococcus aureus [31]): Active; Activity (Staphylococcus aureus [32]): Active |
